Assay results taken from patent publication US20020035061A1, “COMPOSITIONS AND METHODS FOR TREATING INFECTIONS USING CATIONIC PEPTIDES ALONE OR IN COMBINATION WITH ANTIBIOTICS” (priority 1996, published 2002).
Values after ≈ are worked out from the molar mass of the structure shown. Values joined by “and” are separate entries in the source; they are usually repeats but may differ in a detail not shown here. Equal entries are not always repeated. Where two headings read alike, the source gives them in different places.

Columns and labels:
Assay in all cases: microbe, parasite or virus in culture
Assay type in all cases: cell-based
[1] = tested on: bacterial isolates
[2] = tested on: inherently resistant microorganisms; details: for MIC: Staphylococcus aureus, MRSA
[3] = tested on: microorganisms with acquired resistance
[4] = Acinetobacter calcoaceticus, read-out: Piperacillin MIC Alone, A. calcoaceticus 2
[5] = Acinetobacter calcoaceticus, read-out: Piperacillin MIC Alone, A. calcoaceticus 7
[6] = Enterobacter cloacae, read-out: Piperacillin MIC Alone, E. cloacae 9
[7] = Enterobacter cloacae, read-out: Piperacillin MIC Alone, E. cloacae 10
[8] = Enterobacter cloacae, read-out: Piperacillin MIC Alone, E. cloacae 13
[9] = Enterobacter cloacae, read-out: Piperacillin MIC Alone, E. cloacae 16
[10] = Enterobacter cloacae, read-out: Piperacillin MIC Alone, E. cloacae 17
[11] = Escherichia coli, read-out: Piperacillin MIC Alone, E. coli 1
[12] = Haemophilus influenzae, read-out: Piperacillin MIC Alone, H. influenzae 1
[13] = Pseudomonas aeruginosa, read-out: Piperacillin MIC Alone, P. aeruginosa 7
[14] = Pseudomonas aeruginosa, read-out: Piperacillin MIC Alone, P. aeruginosa 15
[15] = Pseudomonas aeruginosa, read-out: Piperacillin MIC Alone, P. aeruginosa 22
[16] = Serratia marcescens, read-out: Piperacillin MIC Alone, S. marcescens SB1
[17] = Stenotrophomonas maltophilia, read-out: Piperacillin MIC Alone, S. maltophilia 2
[18] = Stenotrophomonas maltophilia, read-out: Piperacillin MIC Alone, S. maltophilia 3
[19] = Stenotrophomonas maltophilia, read-out: Piperacillin MIC Alone, S. maltophilia 11
[20] = Stenotrophomonas maltophilia, read-out: Piperacillin MIC Alone, S. maltophilia 14
[21] = Stenotrophomonas maltophilia, read-out: Piperacillin MIC Alone, S. maltophilia 34
[22] = Stenotrophomonas maltophilia, read-out: Piperacillin MIC Alone, S. maltophilia 35

With `CCN1CCN(C(=O)N[C@@H](C(=O)N[C@@H]2C(=O)N3[C@@H]2SC(C)(C)[C@@H]3C(=O)O)c2ccccc2)C(=O)C1=O` [Piperacillin] the “Piperacillin MIC Alone” value ([1]; A. calcoaceticus 3) was 128 µg/mL, the MIC [1, 4] was > 512 µg/mL and the MIC ([1]; Acinetobacter calcoaceticus, read-out: Piperacillin MIC Alone, A. calcoaceticus 3) was 64 µg/mL (≈ 124 µM). The MIC [1, 5] was 32 µg/mL (≈ 61.8 µM), the MIC ([1]; Acinetobacter calcoaceticus, read-out: Piperacillin MIC Alone, A. calcoaceticus 8) was 64 µg/mL (≈ 124 µM) and the MIC ([1]; Enterobacter cloacae, read-out: Piperacillin MIC Alone, E. cloacae 6) was > 128 µg/mL. The MIC [1, 6] was > 128 µg/mL, the MIC [1, 7] was > 128 µg/mL and the MIC [1, 8] was 128 µg/mL (≈ 247 µM). The MIC [1, 9] was > 512 µg/mL, the MIC [1, 10] was > 512 µg/mL and the MIC [1, 11] was > 128 µg/mL. For the same compound, the “Piperacillin MIC Alone” value ([1]; H. influenzae 1) was 32 µg/mL, the MIC [1, 12] was 64 µg/mL (≈ 124 µM) and the MIC ([1]; Haemophilus influenzae, read-out: Piperacillin MIC Alone, H. influenzae 3) was 0.5 µg/mL (≈ 0.966 µM). For the same compound, the MIC ([1]; Haemophilus influenzae, read-out: Piperacillin MIC Alone, H. influenzae SB1) was 0.5 µg/mL (≈ 0.966 µM), the “Piperacillin MIC Alone” value ([1]; P. aeruginosa 7) was 128 µg/mL and the “Piperacillin MIC Alone” value ([1]; P. aeruginosa 41) was 32 µg/mL. The MIC [1, 13] was > 128 µg/mL, the MIC [1, 14] was > 128 µg/mL and the MIC [1, 15] was > 128 µg/mL. The MIC ([1]; Pseudomonas aeruginosa, read-out: Piperacillin MIC Alone, P. aeruginosa 28) was > 512 µg/mL, the MIC ([1]; Pseudomonas aeruginosa, read-out: Piperacillin MIC Alone, P. aeruginosa 29) was 512 µg/mL (≈ 989 µM) and the MIC ([1]; Pseudomonas aeruginosa, read-out: Piperacillin MIC Alone, P. aeruginosa 32) was 64 µg/mL (≈ 124 µM). For the same compound, the MIC ([1]; Pseudomonas aeruginosa, read-out: Piperacillin MIC Alone, P. aeruginosa 41) was 64 µg/mL (≈ 124 µM), the “Piperacillin MIC Alone” value ([1]; S. aureus 19 MRSA) was >128 µg/mL and the “Piperacillin MIC Alone” value ([1]; S. aureus SB3MRSA) was 128 µg/mL. For the same compound, the MIC [1, 16] was 64 µg/mL (≈ 124 µM), the MIC ([1]; Staphylococcus aureus, MRSA, read-out: Piperacillin MIC Alone, S. aureus 11 MRSA) was > 128 µg/mL and the MIC ([1]; Staphylococcus aureus, MRSA, read-out: Piperacillin MIC Alone, S. aureus 18 MRSA) was > 128 µg/mL. The MIC ([1]; Staphylococcus aureus, MRSA, read-out: Piperacillin MIC Alone, S. aureus 19 MRSA) was 128 µg/mL (≈ 247 µM), the MIC ([1]; Staphylococcus aureus, read-out: Piperacillin MIC Alone, S. aureus SB2MRSA) was 128 µg/mL (≈ 247 µM) and the MIC ([1]; Staphylococcus aureus, read-out: Piperacillin MIC Alone, S. aureus SB3MRSA) was > 128 µg/mL. For the same compound, the MIC [1, 17] was 64 µg/mL (≈ 124 µM), the MIC [1, 18] was 128 µg/mL (≈ 247 µM) and the MIC ([1]; Stenotrophomonas maltophilia, read-out: Piperacillin MIC Alone, S. maltophilia 5) was > 128 µg/mL. For the same compound, the MIC ([1]; Stenotrophomonas maltophilia, read-out: Piperacillin MIC Alone, S. maltophilia 6) was > 128 µg/mL, the MIC ([1]; Stenotrophomonas maltophilia, read-out: Piperacillin MIC Alone, S. maltophilia 9) was > 128 µg/mL and the MIC [1, 19] was > 128 µg/mL. The MIC ([1]; Stenotrophomonas maltophilia, read-out: Piperacillin MIC Alone, S. maltophilia 13) was > 128 µg/mL, the MIC [1, 20] was 128 µg/mL (≈ 247 µM) and the MIC [1, 21] was > 512 µg/mL. For the same compound, the MIC [1, 22] was > 256 µg/mL, the MIC ([1]; Stenotrophomonas maltophilia, read-out: Piperacillin MIC Alone, S. maltophilia 38) was > 512 µg/mL and the MIC ([1]; Stenotrophomonas maltophilia, read-out: Piperacillin MIC Alone, S. maltophilia 40) was > 512 µg/mL. The MIC ([1]; Stenotrophomonas maltophilia, read-out: Piperacillin MIC Alone, S. maltophilia 42) was > 512 µg/mL, the “Piperacillin MIC + Peptide” value ([2]; S. aureus MRSA, peptide MBI 11F3CN) was 4 µg/mL and the MIC ([2]; read-out: Piperacillin MIC + Peptide, S. aureus MRSA, peptide MBI 11B7CN) was 0.5 µg/mL. It also gave an MIC ([2]; read-out: Piperacillin MIC + Peptide, S. aureus MRSA, peptide MBI 11D18CN) of 2 µg/mL, an MIC ([2]; read-out: Piperacillin MIC + Peptide, S. aureus MRSA, peptide MBI 11E3CN) of 2 µg/mL and an MIC ([2]; read-out: Piperacillin MIC + Peptide, S. aureus MRSA, peptide MBI 11F3CN) of 2 µg/mL. For the same compound, the MIC ([2]; read-out: Piperacillin MIC + Peptide, S. aureus MRSA, peptide MBI 11F4CN) was 4 µg/mL, the MIC ([2]; read-out: Piperacillin MIC + Peptide, S. aureus MRSA, peptide MBI 11G7CN) was 0.5 µg/mL and the MIC ([2]; read-out: Piperacillin MIC + Peptide, S. aureus MRSA, peptide MBI 21A2) was 0.5 µg/mL. For the same compound, the MIC ([2]; read-out: Piperacillin MIC + Peptide, S. aureus MRSA, peptide MBI 26) was 0.5 µg/mL, the MIC ([2]; read-out: Piperacillin MIC + Peptide, S. aureus MRSA, peptide MBI 29) was 4 µg/mL and the MIC ([2]; read-out: Piperacillin MIC Alone, S. aureus MRSA) was 128 µg/mL (≈ 247 µM). The MIC [3, 4] was > 512 µg/mL, the MIC [3, 5] was 32 µg/mL (≈ 61.8 µM) and the MIC [3, 6] was > 128 µg/mL. The MIC [3, 7] was > 128 µg/mL, the MIC [3, 8] was 128 µg/mL (≈ 247 µM) and the MIC [3, 9] was > 512 µg/mL. The MIC [3, 10] was > 512 µg/mL, the MIC ([3]; Enterobacter cloacae, read-out: Piperacillin MIC Alone, E. cloacae 19) was 64 µg/mL (≈ 124 µM) and the MIC [3, 11] was > 128 µg/mL. The “Piperacillin MIC Alone” value ([3]; H. influenzae 1) was 32 µg/mL, the MIC [3, 12] was 64 µg/mL (≈ 124 µM) and the “Piperacillin MIC Alone” value ([3]; P. aeruginosa 7) was >128 µg/mL. For the same compound, the “Piperacillin MIC Alone” value ([3]; P. aeruginosa 23) was >128 µg/mL and 256 µg/mL, the “MIC comb. (antibiotic agent)” value ([3]; P. aeruginosa, with MBI 27) was 64 µg/mL (≈ 124 µM) and the “MIC comb. (antibiotic agent)” value ([3]; P. aeruginosa, with MBI 29) was 64 µg/mL (≈ 124 µM). For the same compound, the MIC ([3]; Pseudomonas aeruginosa, read-out: MIC alone (antibiotic agent), P. aeruginosa) was 128 µg/mL (≈ 247 µM), the MIC [3, 13] was 128 µg/mL (≈ 247 µM) and the MIC ([3]; Pseudomonas aeruginosa, read-out: Piperacillin MIC Alone, P. aeruginosa 12) was > 128 µg/mL. The MIC [3, 14] was > 128 µg/mL, the MIC [3, 15] was > 128 µg/mL and the MIC ([3]; Pseudomonas aeruginosa, read-out: Piperacillin MIC Alone, P. aeruginosa 23) was 128 µg/mL (≈ 247 µM). The MIC ([3]; Pseudomonas aeruginosa, read-out: Piperacillin MIC Alone, P. aeruginosa 24) was > 512 µg/mL, the MIC ([3]; Pseudomonas aeruginosa, read-out: Piperacillin MIC Alone, P. aeruginosa 26) was 128 µg/mL (≈ 247 µM) and the “MIC comb. (antibiotic agent)” value ([3]; S. aureus, with MBI 27) was 64 µg/mL (≈ 124 µM). The “Piperacillin MIC Alone” value ([3]; S. maltophilia 2) was 64 µg/mL, the “Piperacillin MIC Alone” value ([3]; S. maltophilia 4) was 128 µg/mL and the “Piperacillin MIC Alone” value ([3]; S. maltophilia 35) was >512 µg/mL. The “MIC comb. (antibiotic agent)” value ([3]; S. maltophilia, with MBI 26) was 16 µg/mL (≈ 30.9 µM), the MIC [3, 16] was 64 µg/mL (≈ 124 µM) and the MIC ([3]; Staphylococcus aureus, read-out: MIC alone (antibiotic agent), S. aureus) was 128 µg/mL (≈ 247 µM). The MIC ([3]; Stenotrophomonas maltophilia, read-out: MIC alone (antibiotic agent), S. maltophilia) was > 512 µg/mL, the MIC [3, 17] was 32 µg/mL (≈ 61.8 µM) and the MIC [3, 18] was 64 µg/mL (≈ 124 µM). For the same compound, the MIC ([3]; Stenotrophomonas maltophilia, read-out: Piperacillin MIC Alone, S. maltophilia 4) was 64 µg/mL (≈ 124 µM), the MIC [3, 19] was 32 µg/mL (≈ 61.8 µM) and the MIC [3, 20] was 128 µg/mL (≈ 247 µM). The MIC [3, 21] was > 512 µg/mL, the MIC [3, 22] was > 256 µg/mL and the MIC ([3]; Stenotrophomonas maltophilia, read-out: Piperacillin MIC Alone, S. maltophilia 41) was > 512 µg/mL.
